{
  "source": "patent US20230365546A1",
  "about": "“5-SUBSTITUTED INDOLE 3-AMIDE DERIVATIVES, PREPARATION METHOD AND USE THEREOF” (ORIGIANT PHARMACEUTICAL CO., LTD, priority 2020, published 2023)",
  "key": {"[1]": {"biological_target": "CDK7/cyclinH/MAT1(h) (Homo sapiens (Human), UniProt P50613)", "assay": "Kinase Profiler 10 μM panel", "experimental": "(§1) In vitro kinase assays were conducted using Kinase Profiler services provided by Eurofins. The experimental method was as follows: the small molecule compound to be tested (0.001-10 μM), the protein kinase to be tested were incubated with a buffer containing substrate, 10 mM magnesium acetate, and [γ-^33P-ATP], the reaction was started by adding Mg\\TPmix, after incubation for a period of time at room temperature, a 3% phosphate solution was added to the buffer to stop the reaction. Subsequently, 10 μL of the reaction mixture was quantitatively pipetted onto P30 filter paper, which was washed three times with 75 mM phosphate solution and then once with methanol. The P30 filter paper was air-dried and scintillation fluid was added for scintillation counting."}, "[2]": {"biological_target": "Fyn(h) (Homo sapiens (Human), UniProt P06241)", "assay": "Kinase Profiler 10 μM panel", "experimental": "as §1"}, "[3]": {"biological_target": "PRK1(h) (Homo sapiens (Human), UniProt Q16512)", "assay": "Kinase Profiler 10 μM panel", "experimental": "as §1"}, "[4]": {"biological_target": "DYRK3(h) (Homo sapiens (Human), UniProt O43781)", "assay": "Kinase Profiler 10 μM panel", "experimental": "as §1"}, "[5]": {"biological_target": "DYRK1A(h) (Homo sapiens (Human), UniProt Q13627)", "assay": "Kinase Profiler 10 μM panel", "experimental": "as §1"}, "[6]": {"biological_target": "Hck(h) activated (Homo sapiens (Human), UniProt P08631)", "assay": "Kinase Profiler 10 μM panel", "experimental": "as §1"}, "[7]": {"biological_target": "ZAK(h) (Homo sapiens (Human), UniProt Q9NYL2)", "assay": "Kinase Profiler 10 μM panel", "experimental": "as §1"}, "[8]": {"biological_target": "MRCKγ(h) (Homo sapiens (Human), UniProt Q6DT37)", "assay": "Kinase Profiler 10 μM panel", "experimental": "as §1"}, "[9]": {"biological_target": "IGF-1R(h), activated (Homo sapiens (Human), UniProt P08069)", "assay": "Kinase Profiler 10 μM panel", "experimental": "as §1"}, "[10]": {"biological_target": "CDKL2(h) (Homo sapiens (Human), UniProt Q92772)", "assay": "Kinase Profiler 10 μM panel", "experimental": "as §1"}, "[11]": {"biological_target": "PI3 Kinase (p110a(H1047R)/p85a)(h) (Homo sapiens (Human), UniProt P42336, H1047R)", "sequence (P42336 whole entry H1047R)": "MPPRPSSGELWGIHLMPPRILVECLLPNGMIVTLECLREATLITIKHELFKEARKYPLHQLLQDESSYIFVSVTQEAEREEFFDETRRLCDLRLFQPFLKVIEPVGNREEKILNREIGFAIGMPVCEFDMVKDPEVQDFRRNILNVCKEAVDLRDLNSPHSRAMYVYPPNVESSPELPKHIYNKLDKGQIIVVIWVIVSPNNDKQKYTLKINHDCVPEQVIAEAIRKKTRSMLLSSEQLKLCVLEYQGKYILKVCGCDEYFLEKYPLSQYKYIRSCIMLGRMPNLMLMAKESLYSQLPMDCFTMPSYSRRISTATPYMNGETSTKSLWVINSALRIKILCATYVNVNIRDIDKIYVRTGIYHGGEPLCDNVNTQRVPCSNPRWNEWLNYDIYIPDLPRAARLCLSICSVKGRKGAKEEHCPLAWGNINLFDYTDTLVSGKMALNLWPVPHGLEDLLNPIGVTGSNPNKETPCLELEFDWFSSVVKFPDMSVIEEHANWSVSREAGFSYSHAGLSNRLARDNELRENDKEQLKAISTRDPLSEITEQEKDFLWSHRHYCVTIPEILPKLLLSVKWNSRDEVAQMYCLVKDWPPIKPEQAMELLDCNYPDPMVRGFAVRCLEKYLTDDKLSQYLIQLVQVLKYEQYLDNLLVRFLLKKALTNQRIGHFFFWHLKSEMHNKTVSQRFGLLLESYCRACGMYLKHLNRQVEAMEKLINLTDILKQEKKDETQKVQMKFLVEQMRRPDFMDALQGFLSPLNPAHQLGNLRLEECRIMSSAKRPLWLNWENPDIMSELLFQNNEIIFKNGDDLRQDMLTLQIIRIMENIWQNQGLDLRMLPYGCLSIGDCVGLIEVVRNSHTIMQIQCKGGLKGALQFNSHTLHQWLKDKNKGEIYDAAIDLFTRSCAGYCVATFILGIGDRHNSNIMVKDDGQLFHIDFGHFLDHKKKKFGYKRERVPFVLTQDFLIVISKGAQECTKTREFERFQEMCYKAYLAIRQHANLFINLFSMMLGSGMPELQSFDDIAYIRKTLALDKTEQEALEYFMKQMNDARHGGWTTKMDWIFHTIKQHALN", "sequence (P27986 whole entry partner)": "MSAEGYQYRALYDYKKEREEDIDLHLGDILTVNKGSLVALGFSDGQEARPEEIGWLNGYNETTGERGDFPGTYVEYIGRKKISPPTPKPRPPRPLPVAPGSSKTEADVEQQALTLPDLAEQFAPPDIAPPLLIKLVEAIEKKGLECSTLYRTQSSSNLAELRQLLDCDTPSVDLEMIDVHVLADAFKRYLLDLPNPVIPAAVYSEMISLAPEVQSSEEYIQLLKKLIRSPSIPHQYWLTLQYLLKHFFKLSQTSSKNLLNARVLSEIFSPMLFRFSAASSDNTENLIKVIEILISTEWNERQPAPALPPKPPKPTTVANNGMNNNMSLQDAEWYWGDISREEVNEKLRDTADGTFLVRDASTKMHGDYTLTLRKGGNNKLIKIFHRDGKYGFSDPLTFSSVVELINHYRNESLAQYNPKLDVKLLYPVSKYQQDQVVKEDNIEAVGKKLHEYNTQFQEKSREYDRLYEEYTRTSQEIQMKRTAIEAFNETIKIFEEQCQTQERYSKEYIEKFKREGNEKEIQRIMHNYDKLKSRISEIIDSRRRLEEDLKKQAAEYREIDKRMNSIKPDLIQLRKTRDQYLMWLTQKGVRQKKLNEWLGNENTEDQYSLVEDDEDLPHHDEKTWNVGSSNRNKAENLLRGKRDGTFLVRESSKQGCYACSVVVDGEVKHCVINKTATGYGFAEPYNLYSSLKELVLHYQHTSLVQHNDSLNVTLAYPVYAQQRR", "assay": "Kinase Profiler 10 μM panel", "experimental": "as §1"}, "[12]": {"biological_target": "STK16(h) (Homo sapiens (Human), UniProt O75716)", "assay": "Kinase Profiler 10 μM panel", "experimental": "as §1"}, "[13]": {"biological_target": "MLK1(h) (Homo sapiens (Human), UniProt P80192)", "assay": "Kinase Profiler 10 μM panel", "experimental": "as §1"}, "[14]": {"biological_target": "Pim-1(h) (Homo sapiens (Human), UniProt P11309)", "assay": "Kinase Profiler 10 μM panel", "experimental": "as §1"}, "[15]": {"biological_target": "TRB2(h) (Homo sapiens (Human), UniProt Q92519)", "assay": "Kinase Profiler 10 μM panel", "experimental": "as §1"}, "[16]": {"biological_target": "PI3 Kinase (p110a/p85a)(h) (Homo sapiens (Human), UniProt P42336)", "sequence (P42336 whole entry)": "as the sequence (P42336 whole entry H1047R) above, with R1047H counted along it", "sequence (P27986 whole entry partner)": "as the sequence (P27986 whole entry partner) above", "assay": "Kinase Profiler 10 μM panel", "experimental": "The experimental method was as follows: the small molecule compound to be tested (0.001-10 μM), the protein kinase to be tested were incubated with a buffer containing substrate, 10 mM magnesium acetate, and [γ-^33P-ATP], the reaction was started by adding Mg\\TPmix, after incubation for a period of time at room temperature, a 3% phosphate solution was added to the buffer to stop the reaction. Subsequently, 10 μL of the reaction mixture was quantitatively pipetted onto P30 filter paper, which was washed three times with 75 mM phosphate solution and then once with methanol. The P30 filter paper was air-dried and scintillation fluid was added for scintillation counting."}, "[17]": {"biological_target": "ZIPK(h) (Homo sapiens (Human), UniProt O43293)", "assay": "Kinase Profiler 10 μM panel", "experimental": "as §1"}, "[18]": {"biological_target": "PhKγ2(h) (Homo sapiens (Human), UniProt P15735)", "sequence (P15735 whole entry)": "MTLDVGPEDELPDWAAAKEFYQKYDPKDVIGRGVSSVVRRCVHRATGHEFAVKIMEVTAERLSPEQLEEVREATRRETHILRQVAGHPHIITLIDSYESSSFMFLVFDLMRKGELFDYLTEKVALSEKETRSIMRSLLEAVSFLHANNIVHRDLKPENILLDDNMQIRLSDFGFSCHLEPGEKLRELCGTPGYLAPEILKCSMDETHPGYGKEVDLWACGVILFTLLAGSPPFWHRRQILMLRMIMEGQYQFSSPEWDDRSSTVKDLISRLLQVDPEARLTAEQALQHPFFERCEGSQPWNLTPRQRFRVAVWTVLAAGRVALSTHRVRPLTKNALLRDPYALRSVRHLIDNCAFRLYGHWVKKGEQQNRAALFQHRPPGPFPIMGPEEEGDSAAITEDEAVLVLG", "assay": "Kinase Profiler 10 μM panel", "experimental": "as §1"}, "[19]": {"biological_target": "CDK6/cyclinD3(h) (Homo sapiens (Human), UniProt Q00534)", "assay": "Kinase Profiler 10 μM panel", "experimental": "as §1"}, "[20]": {"biological_target": "FGFR1(V561M)(h) (Homo sapiens (Human), UniProt P11362, V561M)", "sequence (P11362 22-822 V561M)": "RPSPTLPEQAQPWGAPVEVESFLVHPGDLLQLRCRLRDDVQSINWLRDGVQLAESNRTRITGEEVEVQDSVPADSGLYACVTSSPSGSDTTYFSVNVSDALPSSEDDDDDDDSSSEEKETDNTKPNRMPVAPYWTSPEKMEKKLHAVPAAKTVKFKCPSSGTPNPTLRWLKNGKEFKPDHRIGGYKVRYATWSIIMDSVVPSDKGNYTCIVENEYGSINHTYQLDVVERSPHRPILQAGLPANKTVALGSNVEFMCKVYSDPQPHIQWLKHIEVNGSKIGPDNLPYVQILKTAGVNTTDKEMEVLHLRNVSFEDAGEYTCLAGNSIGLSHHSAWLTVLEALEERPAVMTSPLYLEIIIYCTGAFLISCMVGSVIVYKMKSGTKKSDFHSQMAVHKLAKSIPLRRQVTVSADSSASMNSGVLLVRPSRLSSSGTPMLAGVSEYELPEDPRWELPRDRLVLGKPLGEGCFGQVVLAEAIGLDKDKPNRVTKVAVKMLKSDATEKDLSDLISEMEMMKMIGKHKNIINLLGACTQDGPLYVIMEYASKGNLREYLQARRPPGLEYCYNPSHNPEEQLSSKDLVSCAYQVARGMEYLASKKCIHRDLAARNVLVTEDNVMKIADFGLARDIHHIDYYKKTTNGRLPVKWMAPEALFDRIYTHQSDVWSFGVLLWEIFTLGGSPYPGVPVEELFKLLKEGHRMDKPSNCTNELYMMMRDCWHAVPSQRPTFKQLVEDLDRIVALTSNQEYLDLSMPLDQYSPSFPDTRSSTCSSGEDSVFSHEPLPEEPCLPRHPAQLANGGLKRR", "assay": "Kinase Profiler 10 μM panel", "experimental": "as §1"}, "[21]": {"biological_target": "SIK(h) (Homo sapiens (Human), UniProt P57059)", "assay": "Kinase Profiler 10 μM panel", "experimental": "as §1"}, "[22]": {"biological_target": "Fms(h) (Homo sapiens (Human), UniProt P07333)", "sequence (P07333 20-972)": "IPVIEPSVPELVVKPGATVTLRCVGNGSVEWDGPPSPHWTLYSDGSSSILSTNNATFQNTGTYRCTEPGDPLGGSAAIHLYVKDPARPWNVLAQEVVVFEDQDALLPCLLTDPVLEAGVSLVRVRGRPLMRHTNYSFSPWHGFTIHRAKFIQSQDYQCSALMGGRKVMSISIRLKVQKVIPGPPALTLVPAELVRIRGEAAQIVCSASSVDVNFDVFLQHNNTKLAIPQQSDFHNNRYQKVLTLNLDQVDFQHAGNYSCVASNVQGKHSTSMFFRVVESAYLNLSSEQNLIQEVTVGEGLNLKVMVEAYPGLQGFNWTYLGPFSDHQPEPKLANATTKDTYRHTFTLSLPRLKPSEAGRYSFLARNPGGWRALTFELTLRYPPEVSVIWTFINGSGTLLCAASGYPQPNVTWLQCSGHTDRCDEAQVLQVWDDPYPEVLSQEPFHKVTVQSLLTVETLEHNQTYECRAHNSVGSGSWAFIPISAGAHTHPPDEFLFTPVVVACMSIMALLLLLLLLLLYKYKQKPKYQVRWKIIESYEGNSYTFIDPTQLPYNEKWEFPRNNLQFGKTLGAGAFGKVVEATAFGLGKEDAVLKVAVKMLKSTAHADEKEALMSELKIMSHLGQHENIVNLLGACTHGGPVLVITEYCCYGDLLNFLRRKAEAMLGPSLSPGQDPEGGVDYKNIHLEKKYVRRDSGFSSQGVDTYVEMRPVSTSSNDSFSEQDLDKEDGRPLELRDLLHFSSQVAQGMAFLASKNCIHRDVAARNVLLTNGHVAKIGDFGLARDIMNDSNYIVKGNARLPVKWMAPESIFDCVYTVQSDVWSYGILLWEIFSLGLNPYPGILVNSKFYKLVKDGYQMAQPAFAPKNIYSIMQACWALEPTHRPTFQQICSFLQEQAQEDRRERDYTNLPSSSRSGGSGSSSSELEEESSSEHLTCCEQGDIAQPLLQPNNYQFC", "assay": "Kinase Profiler 10 μM panel", "experimental": "as §1"}, "[23]": {"biological_target": "TBK1(h) (Homo sapiens (Human), UniProt Q9UHD2)", "assay": "Kinase Profiler 10 μM panel"}, "[24]": {"biological_target": "Ros(h) (Homo sapiens (Human), UniProt P08922)", "assay": "Kinase Profiler 10 μM panel", "experimental": "as §1"}, "[25]": {"biological_target": "RIPK1 (Homo sapiens (Human), UniProt Q13546)", "assay": "In vitro kinase assay (Eurofins Kinase Profiler), IC50", "format": "biochemical", "conditions": "0.001-10 μM, read-out: RIPK 1 (IC50)", "experimental": "as §1"}, "[26]": {"biological_target": "MST3(h) (Homo sapiens (Human), UniProt Q9Y6E0)", "assay": "Kinase Profiler 10 μM panel"}, "[27]": {"biological_target": "TAF1L(h) (Homo sapiens (Human), UniProt Q8IZX4)", "assay": "Kinase Profiler 10 μM panel", "experimental": "as §1"}, "[28]": {"biological_target": "Flt3(D835Y)(h) (Homo sapiens (Human), UniProt P36888, D835Y)", "assay": "Kinase Profiler 10 μM panel", "experimental": "as §1"}, "[29]": {"biological_target": "MSK2(h) (Homo sapiens (Human), UniProt O75676)", "sequence (O75676 whole entry)": "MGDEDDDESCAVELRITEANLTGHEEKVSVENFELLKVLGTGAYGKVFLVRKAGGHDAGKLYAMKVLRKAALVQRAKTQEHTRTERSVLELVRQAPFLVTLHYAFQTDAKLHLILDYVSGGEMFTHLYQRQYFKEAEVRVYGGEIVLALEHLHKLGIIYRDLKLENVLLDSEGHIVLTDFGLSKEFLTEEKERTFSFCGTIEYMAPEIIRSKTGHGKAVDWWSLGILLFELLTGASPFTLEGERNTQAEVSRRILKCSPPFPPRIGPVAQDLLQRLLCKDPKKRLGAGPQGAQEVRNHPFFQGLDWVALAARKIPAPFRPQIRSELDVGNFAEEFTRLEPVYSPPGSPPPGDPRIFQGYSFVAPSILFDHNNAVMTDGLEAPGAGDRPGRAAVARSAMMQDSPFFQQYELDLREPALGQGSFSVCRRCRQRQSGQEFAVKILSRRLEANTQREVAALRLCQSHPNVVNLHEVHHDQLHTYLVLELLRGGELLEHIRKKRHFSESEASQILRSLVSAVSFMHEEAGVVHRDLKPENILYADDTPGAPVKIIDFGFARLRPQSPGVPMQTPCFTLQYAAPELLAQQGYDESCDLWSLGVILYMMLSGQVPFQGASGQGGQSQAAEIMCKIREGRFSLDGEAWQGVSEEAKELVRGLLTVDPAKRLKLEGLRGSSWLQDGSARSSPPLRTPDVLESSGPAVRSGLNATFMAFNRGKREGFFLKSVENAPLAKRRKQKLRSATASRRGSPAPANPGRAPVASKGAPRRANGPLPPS", "assay": "Kinase Profiler 10 μM panel", "experimental": "as §1"}, "[30]": {"biological_target": "TSSK4(h) (Homo sapiens (Human), UniProt Q6SA08)", "assay": "Kinase Profiler 10 μM panel", "experimental": "as §1"}, "[31]": {"biological_target": "MSSK1(h) (Homo sapiens (Human), UniProt Q9UPE1)", "assay": "Kinase Profiler 10 μM panel", "experimental": "as §1"}, "[32]": {"biological_target": "HIPK3(h) (Homo sapiens (Human), UniProt Q9H422)", "assay": "Kinase Profiler 10 μM panel", "experimental": "as §1"}, "[33]": {"biological_target": "EGFR(h) (Homo sapiens (Human), UniProt P00533)", "assay": "Kinase Profiler 10 μM panel", "experimental": "as §1"}},
  "note": "Values joined by “and” are separate entries in the source; they are usually repeats but may differ in a detail not shown here. Identical values can stand only once.",
  "data": [
    {"smiles": "C[C@H](NC(=O)c1c[nH]c2ccc(-c3ccc4nc(NC(=O)C5CC5)sc4c3)cc12)c1cccc(F)c1", "note": "[Compound 34, (S)-5-(2-(cyclopropanecarboxamido)benzo[d]thiazol-6-yl)-N-(1-(3-fluorophenyl)ethyl)-1H-indole-3-carboxamide]", "values": [
      {"measurement": "Inhibition ratio", "setting": "[1]", "value": 3, "unit": "%"},
      {"measurement": "Inhibition ratio", "setting": "[2]", "value": 43, "unit": "%"},
      {"measurement": "Inhibition ratio", "setting": "[3]", "value": 26, "unit": "%"},
      {"measurement": "Inhibition ratio", "setting": "[4]", "value": 48, "unit": "%"},
      {"measurement": "Inhibition ratio", "setting": "[5]", "value": 47, "unit": "%"},
      {"measurement": "Inhibition ratio", "setting": "[6]", "value": 26, "unit": "%"},
      {"measurement": "Inhibition ratio", "setting": "[7]", "value": 67, "unit": "%"},
      {"measurement": "Inhibition ratio", "setting": "[8]", "value": "−1", "unit": "%"},
      {"measurement": "Inhibition ratio", "setting": "[9]", "value": 21, "unit": "%"},
      {"measurement": "Inhibition ratio", "setting": "[10]", "value": 68, "unit": "%"},
      {"measurement": "Inhibition ratio", "setting": "[11]", "value": 34, "unit": "%"},
      {"measurement": "Inhibition ratio", "setting": "[12]", "value": 17, "unit": "%"},
      {"measurement": "Inhibition ratio", "setting": "[13]", "value": 98, "unit": "%"},
      {"measurement": "Inhibition ratio", "setting": "[14]", "value": 3, "unit": "%"},
      {"measurement": "Inhibition ratio", "setting": "[15]", "value": 65, "unit": "%"},
      {"measurement": "Inhibition ratio", "setting": "[16]", "value": 23, "unit": "%"},
      {"measurement": "Inhibition ratio", "setting": "[17]", "value": "−4", "unit": "%"},
      {"measurement": "Inhibition ratio", "setting": "[18]", "value": 5, "unit": "%"},
      {"measurement": "Inhibition ratio", "setting": "[19]", "value": 6, "unit": "%"},
      {"measurement": "Inhibition ratio", "setting": "[20]", "value": 80, "unit": "%"},
      {"measurement": "Inhibition ratio", "setting": "[21]", "value": 21, "unit": "%"},
      {"measurement": "Inhibition ratio", "setting": "[22]", "value": 21, "unit": "%"},
      {"measurement": "Inhibition ratio", "setting": "[23]", "value": 53, "unit": "%"},
      {"measurement": "Inhibition ratio", "setting": "[24]", "value": 31, "unit": "%"},
      {"measurement": "IC50", "setting": "[25]", "value": "10 to 100", "unit": "nM"},
      {"measurement": "Inhibition ratio", "setting": "[26]", "value": 7, "unit": "%"},
      {"measurement": "Inhibition ratio", "setting": "[27]", "value": 58, "unit": "%"},
      {"measurement": "Inhibition ratio", "setting": "[28]", "value": 82, "unit": "%"},
      {"measurement": "Inhibition ratio", "setting": "[29]", "value": 23, "unit": "%"},
      {"measurement": "Inhibition ratio", "setting": "[30]", "value": 13, "unit": "%"},
      {"measurement": "Inhibition ratio", "setting": "[31]", "value": 24, "unit": "%"},
      {"measurement": "Inhibition ratio", "setting": "[32]", "value": 79, "unit": "%"},
      {"measurement": "Inhibition ratio", "setting": "[33]", "value": 19, "unit": "%"}
    ]},
    {"smiles": "C[C@H](NC(=O)c1cn(C)c2ccc(-c3ccn4nc(NC(=O)C5CC5)nc4c3)cc12)c1cccc(F)c1", "note": "[Compound 94, (S)-5-(2-(cyclopropanecarboxamido)-[1,2,4]triazolo[1,5-a]pyridin-7-yl)-N-(1-(3-fluorophenyl)ethyl)-1-methyl-1H-indole-3-carboxamide]", "values": [
      {"measurement": "Inhibition ratio/%", "setting": "[1]", "value": 53, "unit": "%"},
      {"measurement": "Inhibition ratio/%", "setting": "[2]", "value": "−43", "unit": "%"},
      {"measurement": "Inhibition ratio/%", "setting": "[3]", "value": "−12", "unit": "%"},
      {"measurement": "Inhibition ratio/%", "setting": "[4]", "value": 10, "unit": "%"},
      {"measurement": "Inhibition ratio/%", "setting": "[5]", "value": 2, "unit": "%"},
      {"measurement": "Inhibition ratio/%", "setting": "[6]", "value": "−12", "unit": "%"},
      {"measurement": "Inhibition ratio/%", "setting": "[7]", "value": 59, "unit": "%"},
      {"measurement": "Inhibition ratio/%", "setting": "[8]", "value": 55, "unit": "%"},
      {"measurement": "Inhibition ratio/%", "setting": "[9]", "value": "−17", "unit": "%"},
      {"measurement": "Inhibition ratio/%", "setting": "[10]", "value": 62, "unit": "%"},
      {"measurement": "Inhibition ratio/%", "setting": "[11]", "value": 24, "unit": "%"},
      {"measurement": "Inhibition ratio/%", "setting": "[12]", "value": 20, "unit": "%"},
      {"measurement": "Inhibition ratio/%", "setting": "[13]", "value": 94, "unit": "%"},
      {"measurement": "Inhibition ratio/%", "setting": "[14]", "value": 9, "unit": "%"},
      {"measurement": "Inhibition ratio/%", "setting": "[15]", "value": "−5", "unit": "%"},
      {"measurement": "Inhibition ratio/%", "setting": "[16]", "value": 3, "unit": "%"},
      {"measurement": "Inhibition ratio/%", "setting": "[17]", "value": 6, "unit": "%"},
      {"measurement": "Inhibition ratio/%", "setting": "[18]", "value": 48, "unit": "%"},
      {"measurement": "Inhibition ratio/%", "setting": "[19]", "value": 80, "unit": "%"},
      {"measurement": "Inhibition ratio/%", "setting": "[20]", "value": "45% and 30%"},
      {"measurement": "Inhibition ratio/%", "setting": "[21]", "value": 54, "unit": "%"},
      {"measurement": "Inhibition ratio/%", "setting": "[22]", "value": 22, "unit": "%"},
      {"measurement": "Inhibition ratio/%", "setting": "[23]", "value": 13, "unit": "%"},
      {"measurement": "Inhibition ratio/%", "setting": "[24]", "value": "−18", "unit": "%"},
      {"measurement": "IC50", "setting": "[25]", "value": "1 to 10", "unit": "nM"},
      {"measurement": "Inhibition ratio/%", "setting": "[26]", "value": 33, "unit": "%"},
      {"measurement": "Inhibition ratio/%", "setting": "[27]", "value": 48, "unit": "%"},
      {"measurement": "Inhibition ratio/%", "setting": "[28]", "value": 12, "unit": "%"},
      {"measurement": "Inhibition ratio/%", "setting": "[29]", "value": 9, "unit": "%"},
      {"measurement": "Inhibition ratio/%", "setting": "[30]", "value": 49, "unit": "%"},
      {"measurement": "Inhibition ratio/%", "setting": "[31]", "value": "−12", "unit": "%"},
      {"measurement": "Inhibition ratio/%", "setting": "[32]", "value": 62, "unit": "%"},
      {"measurement": "Inhibition ratio/%", "setting": "[33]", "value": 10, "unit": "%"}
    ]}
  ]
}
